The values below come from ChEMBL document CHEMBL1201862, “PubChem BioAssay data set” (2004).

Active and inactive are the calls of the source. Cut-off read from the data, not from the text of the source: active = IC50 of 50 µM or less and inactive = more.

The target of the assay is T1, Protein skinhead-1 (Caenorhabditis elegans, UniProt P34707).
T1 sequence (P34707 whole entry): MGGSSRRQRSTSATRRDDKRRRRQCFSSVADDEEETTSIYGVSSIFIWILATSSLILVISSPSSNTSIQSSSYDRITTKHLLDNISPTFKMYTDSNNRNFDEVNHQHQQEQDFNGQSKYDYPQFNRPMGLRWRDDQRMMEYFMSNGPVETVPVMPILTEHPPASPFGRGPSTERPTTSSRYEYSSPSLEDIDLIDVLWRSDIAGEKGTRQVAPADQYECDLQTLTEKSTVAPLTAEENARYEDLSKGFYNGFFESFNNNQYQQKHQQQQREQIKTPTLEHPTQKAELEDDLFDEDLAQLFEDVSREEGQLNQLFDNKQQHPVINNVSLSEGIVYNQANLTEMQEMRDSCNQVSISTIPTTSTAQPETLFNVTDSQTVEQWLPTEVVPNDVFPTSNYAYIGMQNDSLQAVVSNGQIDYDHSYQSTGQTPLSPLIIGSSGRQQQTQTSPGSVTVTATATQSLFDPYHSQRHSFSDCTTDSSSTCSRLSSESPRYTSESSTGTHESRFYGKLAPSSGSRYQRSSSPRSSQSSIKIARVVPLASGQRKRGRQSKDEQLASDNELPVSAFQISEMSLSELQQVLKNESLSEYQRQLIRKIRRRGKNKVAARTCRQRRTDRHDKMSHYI
Format: functional.

The IC50 is the midpoint of a concentration-inhibition curve.

Regarding `O=C(O)c1ccc2c(c1)[C@@H]1C=CC[C@@H]1[C@H](c1ccccn1)N2`, the IC50 is > 100 µM (inactive).
